Assay results as given in patent publication US20250228869A1, “Benzodiazepine Pyrazolo Carboxamides as N-protein Inhibitors” (Pfizer Inc., priority 2024, published 2025).
Marks after values point to notes of the source that are not given here.

Assays:
[1] = Shake flask determination of distribution coefficient (log D); assay type: physicochemical; conditions: 1-octanol / phosphate buffer
Description: Shake flask method of determining log D—Miniaturized version of log D assay described in Stopher, D. and McClean, S. J. Pharm. Pharmacol. 1990, 42, 144.
Nadolol, mexiletine, propranolol, quinidine, amitriptyline, and chlorproazine were dissolved in DMSO to a concentration of 10 mM and used as controls in each plate. D-neo-Inositol, 5-[[(2E)-3-[4-[[(5E)-5-[[(3-chloro-2,6-difluorophenyl)methoxy]imino]-5,6-dideoxy-β-D-arabino-hexofuranosyl]oxy]-3-hydroxyphenyl]-2-methyl-1-oxo-2-propenyl]amino]-5-deoxy-1,2-O-methylene-(9Cl) (CAS 247598-17) is used as an Internal Standard (IS).
All liquid handling steps were performed by a Biomek FX. Buffer-saturated 1-octanol (149 μL/well) was added to duplicate 1 mL capacity 96-well plates. Test compounds (10 mM in DMSO; 2 μL/well) and controls (10 mM in DMSO; 2 μL/well) were transferred from Matrix 2D barcoded storage tubes to the 96-well plates.
Following the addition of 1-octanol saturated phosphate buffer (149 μL/well), the plates were sealed with silicone well cap-mats. […]
Samples were analyzed by micro-flow reversed-phase liquid chromatography coupled to tandem mass spectrometry (μfLC-MS/MS). […]
Peak areas were corrected by dilution factors and incorporating internal standard, and the ratio of the corrected peak areas were used to calculate the results (log D value). The log D value for each compound was calculated using the following equation: […]

[2] = system: RSV A2; assay: RSV plaque reduction assay in HepG2 cells; assay type: cell-based; conditions: human respiratory syncytial virus, HepG2, read-out: RSV A2 plaque, HepG2, EC50 (nM)
Excerpt: The RSV plaque reduction assay is an infectivity assay which allows quantification of the number of infectious units in a distinct foci of RSV infection. As each plaque originates from a single infectious virus particle an accurate calculation of the anti-viral effect can be obtained by counting plaques in the presence and absence of an anti-viral compound. HepG2 cells (ECACC: 85011430) were passaged in flasks and seeded in 24-well plates in DMEM containing antibiotics and supplemented with 10% FBS. During inoculation and subsequent incubation, cells were cultured in DMEM containing 2% FBS. 100 plaque forming unit (PFU)/well of RSV (RSV A2 VR-1540) was mixed with serial dilutions of compound. Subsequently, 100 μL of the virus/compound mixtures was added to confluent HepG2 cell monolayers. Plates were incubated at 37° C. in a humidified 5% CO2 incubator for 2 hrs. The inoculum was then removed and 1 ml of overlay (4% CMC in 2% DMEM) was added to each well. Cells were cultured for 48 h at 37° C. in a humidified 5% CO2 incubator and then fixed with 75% acetone-25% methanol solution. Plates were washed under running water and blocking solution (2% skimmed milk powder in PBS-Tween) was added to each well and plates incubated on a shaker for 1 h at 37° C. […]

[3] = In vitro bone marrow assay; assay type: cell-based; conditions: primary human bone marrow mononuclear cells, 5 days exposure, total cell count, read-out: Human Bone Marrow Tox IC50
Description: In vitro bone marrow assay—Chen, W., et al., J. Pharmacokinetics and Pharmacodynamics, 2020, 47, 163-182.
Primary human bone marrow mononuclear cells (Lonza) were cultured in stemline II hematopoietic stem cell expansion medium (Sigma Aldrich), supplemented with 5% FBS and under induction by the following cytokines (R&D Systems): 25 ng/mL stem cell factor (SCF), ng/mL G-CSF, 10 ng/mL granulocyte macrophage-colony stimulating factor, 3 U/mL erythropoietin (EPO), 15 ng/mL thrombopoietin (TPO), 10 ng/mL IL3, 10 ng/mL IL6, and ng/mL Flt3 ligand. Cell cultures were maintained in the 37° C., 5% CO2, and 98% humidity incubator (see reference for further details). Cells were preincubated for 1 day and were then exposed to either DMSO or compound for 5 additional days. Cell counts were determined manually using a hemocytometer from 10 μL aliquots and converted to the total cell number by adjusting for the volume of the cell culture medium in each well. While the total cell count included myeloid, erythroid, and megakaryocytic lineages, neutrophil precursors comprised the majority of the total cell population given the stimulatory conditions of the cell culture. […]

[4] = Relay method using human hepatocytes (clearance); assay type: in vitro ADME; conditions: human hepatocytes incubations under relay conditions
Excerpt: Relay Method Using Human Hepatocytes—Di, L., et al., Drug Metabolism and Disposition, 2012, 40, 1860-1865.
Pooled cryopreserved human hepatocytes of 10 donors were purchased from Celsis IVT (Baltimore, MD). This lot of pooled hepatocytes was used for all the studies. When selecting new lots of hepatocytes, enzyme activities need to be verified using marker compounds. Upon thawing, the hepatocytes were resuspended in Williams' medium E (custom formula number 91-5233EC; Invitrogen, Grand Island, NY) supplemented with HEPES and Na2CO3. The cells were counted using the trypan blue exclusion method, and the 24-well hepatocyte plates containing 0.5 million cells/ml were spiked with a compound at a final concentration of 1 μM (dimethyl sulfoxide, final concentration 0.025%; methanol, final concentration 0.125%), in a final incubation volume of 0.50 ml. […]
The LC mobile phases were as follows: (A) HPLC grade water containing 0.1% formic acid, and (B) acetonitrile containing 0.1% formic acid. […] Terfenadine was used as an internal standard for LC-MS/MS quantification in positive ion multiple reaction monitoring mode. All of the test compounds had good linearity with R^2>0.99, and the limit of quantitation was 1 nM for all of the compounds.
Human in vitro intrinsic clearance was calculated using methods as previously described in the reference above.

[5] = system: RSV; conditions: Antimicrobial Agents and Chemotherapy 2007 (Chapman et al); cited from earlier work

With `CCS(=O)(=O)c1ccc(-c2nn3c(c2C(=O)N[C@H]2N=C(c4ccccc4)c4cccc(F)c4NC2=O)OCC(C)(C)C3)c(F)c1` [Example 2, (S)-2-(4-(ethylsulfonyl)-2-fluorophenyl)-N-(9-fluoro-2-oxo-5-phenyl-2,3-dihydro-1H-benzo[e][1,4]diazepin-3-yl)-6,6-dimethyl-6,7-dihydro-5H-pyrazolo[5,1-b][1,3]oxazine-3-carboxamide] the logD [1] was 3, the EC50 [2] was 3.5 nM and the IC50 at 5 days [3] was greater than 40000 nM. The “Human Hepatocyte CLint,app (mL/min/million)” value [4] was <0.14* mL/min/million.
For `O=C(Nc1ccccc1F)N[C@H]1N=C(c2ccccc2)c2ccccc2NC1=O` [RSV604], the anti-RSV activity [5] is listed as “sub-micromolar”.
